Laboratory results taken from article PMC7023391, “Comparison of Various Cell Lines and Three-Dimensional Mucociliary Tissue Model Systems to Estimate Drug Permeability Using an In Vitro Transport Study to Predict Nasal Drug Absorption in Rats” (Pharmaceutics, 2020).
Read-outs that look alike come from different tables or passages of the source.

Legend:
[1] = In vitro transepithelial transport study across MucilAir tissues; conditions: human, pH 7.4
in vitro = conditions: human, Caco-2, pH 7.4
Procedure: (§1) Cells of the human colon adenocarcinoma cell line, Caco-2, were grown in Dulbecco’s Modified Eagle Medium (DMEM) supplemented with 10% fetal bovine serum (FBS), 1% L-glutamine, 1% non-essential amino acid, and 0.5% antibiotic–antimycotic solution [20]. Caco-2 cells were harvested with trypsin-EDTA and seeded on polycarbonate filters (pore size: 0.3 μm, growth area: 0.9 cm^2, 12 wells/plate, Beckton Dickinson Bioscience, Bedford, MA, USA) at a density of 1.8 × 10^5 cells/well. The culture medium was changed every 2 days. The monolayer was used for in vitro transport studies, 17–20 days after seeding.
(§2) In transport studies using Caco-2, Calu-3, MDCK, and MucilAir, a transport medium (TM; Hank’s balanced salts solution supplemented with 15 mM glucose and 10 mM HEPES good buffer, pH 7.4) was used. […] The permeability of mannitol across MucilAir was cited from the literature.

[2] = In vitro transepithelial transport study across MDCK monolayers; conditions: dog, pH 7.4
Procedure: (§3) The epithelial Mardi–Darby canine kidney cell line (MDCK) cells were grown in Modified α-Eagle Medium supplemented with 10% FBS and 0.5% antibiotic–antimycotic solution [13]. MDCK cells were harvested with trypsin-EDTA and seeded on polycarbonate filters (pore size: 0.3 μm, growth area: 0.9 cm^2, 12 wells/plate, Beckton Dickinson Bioscience) at a density of 1.8 × 10^5 cells/well. The culture medium was changed every 2 days. The monolayer was used for in vitro transport studies, 6–7 days after seeding.
as §2

[3] = nasal application to rats, AUCn/AUCiv; mean ± S.E.; determined in this study by the same method as ref 11
Procedure: Under anesthesia by intraperitoneal sodium pentobarbital (50 mg/kg, Nembutal, Abbott Laboratories, Abbott Park, IL, USA), the right femoral artery was cannulated with polyethylene tubing (SP-31, Natsume, Tokyo, Japan) for the collection of blood samples. […] Blood samples were collected from arterial tubing in heparinized tubes at predetermined time intervals for 120 min. The blood was centrifuged to obtain the plasma.
Under light isoflurane anesthesia, the right femoral artery was cannulated with polyethylene tubing. A drug dissolved in 5 µL of phosphate buffer saline (pH 7.4) was instilled at 1 cm depth from the nostril by microsyringe. Thereafter, animals were kept in a cage (KN-326-III, Natsume, Tokyo, Japan) throughout the experiment. It usually took 5 min after drug instillation for the rat to recover from the anesthesia. Blood samples were collected for 360 min after drug administration. During this period, the animal was allowed free access to water.
Fractional nasal absorption (Fn) was calculated as follows:Fn = AUCn/AUCiv(2) where AUCn and AUCiv are the area under the concentration–time profile following the nasal and intravenous administration of the drug. AUC was calculated according to the trapezoidal rule up to the last sampling point and extrapolation after the last sampling point.

[4] = cited from earlier work
MucilAir [5] = tested on: MucilAir; parameters: method as in PMID 24216300; conditions: [3H] mannitol; cited from the previous report; cited from earlier work
MDCK [6] = tested on: MDCK; parameters: method as in PMID 23200901; conditions: [14C] D-mannitol; cited from the previous report; cited from earlier work
Calu-3 = experiment: In vitro transepithelial transport study across Calu-3 monolayers
Procedure: Cells of the human bronchial submucosal gland carcinoma cell line, Calu-3, were grown in DMEM nutrient mixture F-12 HAM supplemented with 10% FBS and 0.5% antibiotic–antimycotic solution [21]. Calu-3 cells were harvested with trypsin-EDTA and seeded on polycarbonate filters (pore size: 0.3 μm, growth area: 0.9 cm^2, 12 wells/plate, Beckton Dickinson Bioscience) at a density of 4.5 × 10^5 cells/well. The culture medium was changed every 2 days. The monolayer was used for in vitro transport studies, 9–10 days after seeding.
as §2

EpiAirway = experiment: In vitro transepithelial transport study across EpiAirway tissues
Procedure: Upon arrival, the primary human tracheal/bronchial epithelial cell system, EpiAirway, and the primary human bronchial epithelial cell system, MucilAir, were transferred to the well filled with 0.9 mL assay medium for EpiAirway and 0.7 mL MucilAir culture medium, which are serum free and contain growth factors and phenol red and are supplemented by default with antibiotics (penicillin/streptomycin). Both tissues were subsequently placed in an incubator with 5% CO2 at 37 °C. Both tissues were cultured in an air–liquid interface condition. EpiAirway tissues were used for the transport study following the overnight equilibration in assay medium. The mucous surface of MucilAir tissues was washed with 0.2 mL culture medium 2 days before the experiment in order to adjust the mucous level of each well. The permeation experiment using EpiAirway and MucilAir was conducted according to the manufacturer’s instructions.
In the transport study using EpiAirway, all the procedures were based on the Drug Delivery Protocol established by MatTek Corporation (https://www.mattek.com/wp-content/uploads/EpiAirway-Drug-Delivery-Protocol.pdf), and carried out in Absorption Systems LP. Dulbecco’s Phosphate Buffered Saline (DPBS) without Ca^2+ and Mg^2+ (pH 7.4) was used as the assay buffer. […] Radioactivity was 2 µCi/mL for the dosed [^3H] inulin and 0.5 µCi/mL for the dosed [^14C] mannitol. […]

Caco-2 = experiment: in vitro
Procedure: as §1, §2

MucilAir [7] = conditions: pH 7.4
MDCK [8] = experiment: in vitro; conditions: pH 7.4
Procedure: as §3, §2

[9] = apical to basal, 10 µM, pH 7.4, 37 °C, up to 60 min, mean ± S.E. of 3–4 experiments, inulin as [14C] inulin, mannitol as [14C] D-mannitol

Nc1nc2c(ncn2COCCO)c(=O)[nH]1 [Acyclovir, acyclovir]
Papp at 60 min, 10 µM [1]: 0.48 ± 0.05 ×10⁻⁶ cm/s | Papp at 60 min, 10 µM (in vitro): 1.29 ± 0.28 ×10⁻⁶ cm/s | Papp at 60 min, 10 µM [2]: 0.61 ± 0.23 ×10⁻⁶ cm/s

Cc1cc(=O)n(-c2ccccc2)n1C [Antipyrine, antipyrine]
Fractional Absorption (Fn) [3]: 96.3 ± 4.2% | Papp at 60 min, 10 µM ([2]; MDCK): 32.5 ± 3.71 ×10⁻⁶ cm/s

OC[C@@H](O)[C@@H](O)[C@H](O)[C@H](O)CO [Mannitol, mannitol]
Papp at 60 min, 10 µM (in vitro): 0.92 ± 0.15 ×10⁻⁶ cm/s | Fractional Absorption (Fn) ([4]; rat, in vivo): 52.9 ± 3.4 *^3% | Permeability (Papp) MucilAir (MucilAir [5]): 0.2 ± 0.0 *^4,c ×10^−6cm/s | Permeability (Papp) MDCK (MDCK [6]): 0.18 ± 0.05 *^3,b ×10^−6cm/s

CN(Cc1cnc2nc(N)nc(N)c2n1)c1ccc(C(=O)N[C@@H](CCC(=O)O)C(=O)O)cc1 [Methotrexate, methotrexate]
Papp at 60 min, 10 µM [1]: 0.31 ± 0.06 ×10⁻⁶ cm/s | Papp at 60 min, 10 µM (in vitro): 0.29 ± 0.02 ×10⁻⁶ cm/s | Papp at 60 min, 10 µM [2]: 0.09 ± 0.03 ×10⁻⁶ cm/s

C=C[C@H]1C[N@@]2CC[C@H]1C[C@@H]2[C@@H](O)c1ccnc2ccc(OC)cc12 [Quinidine, quinidine]
Papp at 60 min, 10 µM [1]: 18.6 ± 1.93 ×10⁻⁶ cm/s | Papp at 60 min, 10 µM [2]: 11.6 ± 1.31 ×10⁻⁶ cm/s

Nc1ccc(S(=O)(=O)O)cc1 [Sulfanilic acid, sulfanilic acid]
Permeability (Papp) Calu-3 (Calu-3; pH 7.4): 0.75 ± 0.05 ×10^−6cm/s | Permeability (Papp) EpiAirway (EpiAirway; pH 7.4): 2.78 ± 0.40 ×10^−6cm/s | Permeability (Papp) Caco-2 (Caco-2; Caco-2, pH 7.4): 0.58 ± 0.14 ×10^−6cm/s | Fractional Absorption (Fn) ([4]; rat, in vivo): 82.7 ± 9.0% | Permeability (Papp) MucilAir (MucilAir [7]): 0.58 ± 0.15 ×10^−6cm/s | Permeability (Papp) MDCK (MDCK [8]): 0.43 ± 0.04 ×10^−6cm/s

inulin
Permeability (Papp) Calu-3 (Calu-3; [9]): 0.30 ± 0.09 *^1 ×10^−6cm/s | Permeability (Papp) EpiAirway (EpiAirway; apical to basal, 10 µM, DPBS pH 7.4, 37 °C, up to 60 min, mean ± S.E. of 3–4 experiments, inulin as [3H] inulin, mannitol as [14C] D-mannitol): 2.83 ± 0.20 *^2 ×10^−6cm/s | Permeability (Papp) Caco-2 (Caco-2; [9]): 0.34 ± 0.20 *^1 ×10^−6cm/s | Fractional Absorption (Fn) ([4]; nasal application to rats, AUCn/AUCiv, mean ± S.E., inulin as [14C] inulin, mannitol as [14C] D-mannitol): 12.4 ± 2.0 *^1%
